Data: ChEMBL document CHEMBL2163265, “Antifungal peptides at membrane interaction” (Eur J Med Chem, 2012)
Calls of active or inactive are those of the source. The rule behind the calls is not given here. Where a SMILES comes first, the peptide text is derived from it.

Assays:
[1] = test system: Candida albicans; assay: Binding affinity to Candida albicans MYA-2876 membrane at 2 mg/ml incubated for 15 mins on ice followed by 45 mins in room temperature by fluorescence microscopic analysis; format: functional
[2] = test system: Candida albicans; assay: Binding affinity to Candida albicans ATCC 90028 membrane at 2 mg/ml incubated for 15 mins on ice followed by 45 mins in room temperature by fluorescence microscopic analysis; format: functional

With `N=C(N)NCCC[C@@H]1NC(=O)[C@H](CCCNC(=N)N)NC(=O)[C@H](Cc2c[nH]c3ccccc23)NC(=O)[C@H](Cc2c[nH]c3ccccc23)NC(=O)[C@H](CCCNC(=N)N)NC(=O)[C@H](Cc2ccccc2)NC(=O)[C@H](Cc2c[nH]cn2)NC1=O` (cyclo(FRWWRRH)) the Activity [1] was “Active” and the Activity [2] was “Active”.
